In patent publication US20060063784A1, “Method of using substituted pyrazolo [1,5-a] pyrimidines” (priority 2004, published 2006):
pIC50: −log10 of the molar value. Where two headings read alike, the source gives them in different places.

Legend:
[1] = test system: 80S14 (p21-deficient) cells; assay: Cytotoxicity assay using isogenic cell lines: IC50 in 80S14 (p21-deficient) cells, SRB; assay type: cell-based, human; conditions: Homo sapiens; for pIC50: 120 h, SRB; for IC50: 80S14, 120 h, read-out: IC50 for 80S14 (uM)
Summary of the method: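 80S14 (p21-deficient) cells seeded at 12,000 cells/well overnight, then exposed 5 days at 37 °C to serial dilutions (5 pM–50 μM or 170 pg/ml–10 μg/ml). TCA-fixed, sulforhodamine B-stained, absorbance at 560 nm; IC50 taken from cytotoxicity curves versus untreated controls.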

[2] = test system: LoVo Colon cell line; assay: Cytotoxicity assay using LoVo colon cell line, SRB; assay type: cell-based; conditions: Homo sapiens, 96 h, read-out: Inhibition of LoVo
Protocol: Cytotoxicity Assay Using LoVo Colon Cell Line: • 1. LoVo Colon cell lines were cultured in RPMI 1640 medium (Gibco/Invitrogen Life Sciences) supplemented with 10% fetal bovine serum (FBS, Gibco) and 50 μg/ml entamicin (Gibco). Cells were maintained at 37° C. under 7% CO2. • 2. Cells were seeded in 96-well microtiter plates (Corning/Costar) in a volume of 0.15 ml of growth medium (4000 cells/well). Plates were incubated at 37° C. overnight (18-24 hours). • 3. Serial dilutions of the test agent were added to each well. Dilutions were prepared in growth medium. One of two dose ranges was used: 5 pM to 20 μM or 170 pg/ml to 10 μg/ml. Cells were incubated with the test compounds for 4 days at 37° C. • 4. Surviving cells were processed using the SRB asay, as described above.
5. The drug concentration that inhibits cell proliferation by 50% relative to untreated controls (IC50) was determined from cytotoxicity curves using the LSW Toolbox graphing application.

[3] = 80S14 p21-deficient cells, 5 days incubation, read-out: IC50 for 80SI4
[4] = LoVo colon cells, 4 days incubation, SRB
[5] = 80S14 (p21-deficient) cells, 5 days, class symbols, read-out: IC50 for 80S14
[6] = Cellular activity in LoVo cell, 4 days incubation, SRB

SMILES | pIC50 [1, 3] | pIC50 [2, 4] | pIC50 [1, 5] | pIC50 [2, 6] | also measured
Cc1cc(-c2cccc(NC(=O)OC(C)C)c2)n2ncc(C(=O)c3cccs3)c2n1 [Example 197, isopropyl 3-[5-methyl-3-(thien-2-ylcarbonyl)pyrazolo[1,5-a]pyrimidin-7-yl]phenylcarbamate] | > 6.00 | > 7.00 |  |  | 
Cc1cc(-c2cccc(NC(=O)OCCCl)c2)n2ncc(C(=O)c3cccs3)c2n1 [Example 198, 2-chloroethyl 3-[5-methyl-3-(thien-2-ylcarbonyl)pyrazolo[1,5-a]pyrimidin-7-yl]phenylcarbamate] | > 6.00 | > 7.00 |  |  | 
C=CCCOC(=O)Nc1cccc(-c2cc(C)nc3c(C(=O)c4cccs4)cnn23)c1 [Example 199, but-3-enyl 3-[5-methyl-3-(thien-2-ylcarbonyl)pyrazolo[1,5-a]pyrimidin-7-yl]phenylcarbamate] | > 6.00 | > 7.00 |  |  | 
Cc1cc(-c2cccc(NC(=O)OCC(C)(C)C)c2)n2ncc(C(=O)c3cccs3)c2n1 [Example 200, neopentyl 3-[5-methyl-3-(thien-2-ylcarbonyl)pyrazolo[1,5-a]pyrimidin-7-yl]phenylcarbamate] | > 6.00 | 6.00 to 7.00 |  |  | 
Cc1cc(-c2cccc(NC(=O)CC(C)C)c2)n2ncc(C(=O)c3cccs3)c2n1 [Example 201, 3-methyl-N-{3-[5-methyl-3-(thien-2-ylcarbonyl)pyrazolo[1,5-a]pyrimidin-7-yl]phenyl}butanamide] | > 6.00 | > 7.00 |  |  | 
Cc1cc(-c2cccc(NC(=O)c3ccccc3)c2)n2ncc(C(=O)c3cccs3)c2n1 [Example 202, N-{3-[5-methyl-3-(thien-2-ylcarbonyl)pyrazolo[1,5-a]pyrimidin-7-yl]phenyl}benzamide] | 4.30 to 5.00 | 6.00 to 7.00 |  |  | 
Cc1cc(-c2cccc(NC(=O)C3CCCC3)c2)n2ncc(C(=O)c3cccs3)c2n1 [Example 204, N-{3-[5-methyl-3-(thien-2-ylcarbonyl)pyrazolo[1,5-a]pyrimidin-7-yl]phenyl}cyclopentanecarboxamide] | > 6.00 | 6.00 to 7.00 |  |  | 
Cc1cc(-c2cccc(NC(=O)Cc3cccs3)c2)n2ncc(C(=O)c3cccs3)c2n1 [Example 205, N-{3-[5-methyl-3-(thien-2-ylcarbonyl)pyrazolo[1,5-a]pyrimidin-7-yl]phenyl}-2-thien-2-ylacetamide] | 5.00 to 6.00 | 6.00 to 7.00 |  |  | 
CCCCNC(=O)Nc1cccc(-c2cc(C)nc3c(C(=O)c4cccs4)cnn23)c1 [Example 206, N-butyl-N′-{3-[5-methyl-3-(thien-2-ylcarbonyl)pyrazolo[1,5-a]pyrimidin-7-yl]phenyl}urea] | 5.00 to 6.00 | 6.00 to 7.00 |  |  | 
Cc1cc(-c2cccc(NC(=O)NC(C)C)c2)n2ncc(C(=O)c3cccs3)c2n1 [Example 207, N-isopropyl-N′-{3-[5-methyl-3-(thien-2-ylcarbonyl)pyrazolo[1,5-a]pyrimidin-7-yl]phenyl}urea] | > 6.00 | 6.00 to 7.00 |  |  | 
CCCOC(=O)Nc1cccc(-c2c(C)cnc3c(C(=O)c4cccs4)cnn23)c1 [Example 208, propyl 3-[6-methyl-3-(thien-2-ylcarbonyl)pyrazolo[1,5-a]pyrimidin-7-yl]phenylcarbamate] | 4.30 to 5.00 | 6.00 to 7.00 |  |  | 
Cc1cnc2c(C(=O)c3cccs3)cnn2c1-c1cccc(NC(=O)OC(C)C)c1 [Example 211, isopropyl 3-[6-methyl-3-(thien-2-ylcarbonyl)pyrazolo[1,5-a]pyrimidin-7-yl]phenylcarbamate] | 4.30 to 5.00 | 5.70 to 6.00 |  |  | 
Cc1cnc2c(C(=O)c3cccs3)cnn2c1-c1cccc(NC(=O)OCC(C)(C)C)c1 [Example 214, neopentyl 3-[6-methyl-3-(thien-2-ylcarbonyl)pyrazolo[1,5-a]pyrimidin-7-yl]phenylcarbamate] | 4.30 to 5.00 | 5.70 to 6.00 |  |  | 
CCCNc1cccc(-c2ccnc3c(C(=O)c4cccs4)cnn23)c1 [Example 267, [7-[3-(Propylamino)phenyl]pyrazolo[1,5-a]pyrimidin-3-yl]-2-thienyl-methanone] |  |  | 5.00 to 6.00 | 6.00 to 7.00 | 
CC(C)C(=O)Nc1cccc(-c2ccnc3c(C(=O)c4cccs4)cnn23)c1 [Example 273, 2-Methyl-N-{3-[3-(2-thienylcarbonyl)pyrazolo[1,5-a]pyrimidin-7-yl]phenyl}propanamide] |  |  |  |  | IC50 [1]: < 1 µM; pIC50 ([2]; LoVo): 6.00 to 7.00
CC#CC(=O)Nc1cccc(-c2ccnc3c(C(=O)c4cccs4)cnn23)c1 [Example 274, N-{3-[3-(2-Thienylcarbonyl)pyrazolo[1,5-a]pyrimidin-7-yl]phenyl}-2-butynamide] |  |  | > 6.00 | > 7.00 | 

SMILES | pIC50 [1, 3] | pIC50 [2, 4] | pIC50 [1, 5] | pIC50 [2, 6] | also measured
Cc1cc(-c2cccc(NC(=O)C3CC3)c2)n2ncc(C(=O)c3cccs3)c2n1 [Example 276, N-{3-[5-Methyl-3-(2-thienylcarbonyl)pyrazolo[1,5-a]pyrimidin-7-yl]phenyl}cyclopropanecarboxamide] |  |  | > 6.00 | > 7.00 | 
O=C(c1cccs1)c1cnn2c(-c3cccc(NC(=O)C4CCCCC4)c3)ccnc12 [Example 282, N-{3-[3-(2-Thienylcarbonyl)pyrazolo[1,5-a]pyrimidin-7-yl]phenyl}cyclohexanecarboxamide] |  |  | > 6.00 | 6.00 to 7.00 | 
O=C(c1cccs1)c1cnn2c(-c3cccc(NC(=O)C4CCCC4)c3)ccnc12 [Example 283, N-{3-[3-(2-Thienylcarbonyl)pyrazolo[1,5-a]pyrimidin-7-yl]phenyl}cyclopentanecarboxamide] |  |  | > 6.00 | > 7.00 | 
O=C(Nc1cccc(-c2ccnc3c(C(=O)c4cccs4)cnn23)c1)c1ccccc1 [Example 284, N-{3-[3-(2-Thienylcarbonyl)pyrazolo[1,5-a]pyrimidin-7-yl]phenyl}benzamide] |  |  | > 6.00 | > 7.00 | 
O=C(Nc1cccc(-c2ccnc3c(C(=O)c4cccs4)cnn23)c1)c1ccco1 [Example 285, N-{3-[3-(2-Thienylcarbonyl)pyrazolo[1,5-a]pyrimidin-7-yl]phenyl}-2-furamide] |  |  | > 6.00 | > 7.00 | 
O=C(Nc1cccc(-c2ccnc3c(C(=O)c4cccs4)cnn23)c1)c1cccnc1 [Example 290, N-{3-[3-(2-Thienylcarbonyl)pyrazolo[1,5-a]pyrimidin-7-yl]phenyl}nicotinamide] |  |  | > 6.00 | 6.00 to 7.00 | 
CC(C)OC(=O)Nc1cccc(-c2ccnc3c(C(=O)c4ccsc4)cnn23)c1 [Example 293, Isopropyl 3-[3-(3-thienylcarbonyl)pyrazolo[1,5-a]pyrimidin-7-yl]phenylcarbamate] |  |  |  |  | IC50 [1]: < 1 µM; pIC50 ([2]; LoVo): > 7.00
CC(C)CC(=O)Nc1cccc(-c2ccnc3c(C(=O)c4ccsc4)cnn23)c1 [Example 297, 3-Methyl-N-{3-[3-(3-thienylcarbonyl)pyrazolo[1,5-a]pyrimidin-7-yl]phenyl}butanamide] |  |  |  |  | IC50 [1]: < 1 µM; pIC50 ([2]; LoVo): > 7.00
O=C(CC1CCCC1)Nc1cccc(-c2ccnc3c(C(=O)c4ccco4)cnn23)c1 [Example 303, 2-Cyclopentyl-N-{3-[3-(2-furoyl)pyrazolo[1,5-a]pyrimidin-7-yl]phenyl}acetamide] |  |  | > 6.00 | > 7.00 | 
Cc1ccc(-c2ccnc3c(C(=O)c4cccs4)cnn23)cc1NC(=O)NC(C)C [Example 311, N-Isopropyl-N′-{2-methyl-5-[3-(2-thienylcarbonyl)pyrazolo[1,5-a]pyrimidin-7-yl]phenyl}urea] |  |  | > 6.00 | > 7.00 | 
O=C(Nc1cc(-c2ccnc3c(C(=O)c4cccs4)cnn23)ccc1Cl)c1ccccc1 [Example 312, N-{2-Chloro-5-[3-(2-thienylcarbonyl)pyrazolo[1,5-a]pyrimidin-7-yl]phenyl}benzamide] |  |  | > 6.00 | > 7.00 | 
CC(C)CC(=O)Nc1cc(-c2ccnc3c(C(=O)c4cccs4)cnn23)ccc1Cl [Example 313, N-{2-Chloro-5-[3-(2-thienylcarbonyl)pyrazolo[1,5-a]pyrimidin-7-yl]phenyl}-3-Methylbutanamide] |  |  |  |  | IC50 [1]: < 1 µM; pIC50 ([2]; LoVo): > 7.00
Cc1ccc(-c2ccnc3c(C(=O)c4cccs4)cnn23)cc1NC(=O)OC(C)C [Example 314, Isopropyl 2-methyl-5-[3-(2-thienylcarbonyl)pyrazolo[1,5-a]pyrimidin-7-yl]phenylcarbamate] |  |  |  |  | IC50 [1]: < 1 µM; pIC50 ([2]; LoVo): > 7.00
CC(C)CC(=O)Nc1cncc(-c2ccnc3c(C(=O)c4cccs4)cnn23)c1 [Example 324, 3-Methyl-N-{5-[3-(2-thienylcarbonyl)pyrazolo[1,5-a]pyrimidin-7-yl]-3-pyridinyl}butanamide] |  |  | 5.00 to 6.00 | 6.00 to 7.00 | 
O=C(c1cccs1)c1cnn2c(-c3csc([N+](=O)[O-])c3)ccnc12 [Example 328, [7-(5-Nitro-3-thienyl)pyrazolo[1,5-a]pyrimidin-3-yl](2-thienyl)methanone] |  |  | 5.00 to 6.00 | 6.00 to 7.00 | 
